Converted amounts (≈) assume the structure as drawn. The source made the active and inactive calls. The calls are words filed in the database; no cut-off is given here.
Columns and labels:
[1] = Cytotoxicity against human MRC5 cells assessed as reduction in cell viability incubated for 3 to 5 days by colorimetric analysis; type: cell-based
[2] = system: Mus musculus; assay: Cognitive enhancing effect in mouse model of 5xFAD assessed as increase in recognition memory at 5 mg/kg, po administered for 28 days and measured after 2 hrs of last dosage by novel object recognition test; type: functional, organism-based
[3] = system: Vero; assay: Cytotoxicity against monkey Vero cells assessed as effect on cell morphology at 100 uM incubated for 3 to 5 days by microscopic analysis; type: cell-based; settings: chlorocebus sabaeus
[4] = target: T1, Cholecystokinin receptor type A (Homo sapiens, UniProt P32238); assay: Displacement of [125I]CCK-8s from human CCKA incubated for 60 mins by scintillation counting method
T1 sequence (P32238 whole entry): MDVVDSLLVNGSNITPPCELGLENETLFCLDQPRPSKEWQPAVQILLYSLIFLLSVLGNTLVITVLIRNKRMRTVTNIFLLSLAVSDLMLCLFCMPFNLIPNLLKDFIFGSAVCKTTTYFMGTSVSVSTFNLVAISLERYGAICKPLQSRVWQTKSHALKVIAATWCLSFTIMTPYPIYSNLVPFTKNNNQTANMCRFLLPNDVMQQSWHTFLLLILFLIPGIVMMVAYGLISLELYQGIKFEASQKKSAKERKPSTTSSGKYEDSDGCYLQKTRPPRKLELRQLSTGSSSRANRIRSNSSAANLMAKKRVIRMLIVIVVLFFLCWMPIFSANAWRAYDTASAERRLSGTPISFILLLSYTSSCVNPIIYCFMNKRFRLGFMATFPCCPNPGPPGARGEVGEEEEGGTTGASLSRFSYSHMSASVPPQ

[5] = target: Nischarin (Homo sapiens, UniProt Q9Y2I1); assay: Displacement of [3H]clonidine from I1IR in human brain frontal cortex in presence of adrenaline incubated for 45 mins by liquid scintillation spectrometry; type: tissue-based
[6] = target: Cytochrome P450 2D6 (Homo sapiens, UniProt P10635); assay: Inhibition of recombinant human CYP2D6 at 10 uM using AMMC as substrate incubated for 5 mins followed by substrate addition by fluorescence based assay; type: ADME; settings: recombinant enzyme
[7] = system: MT4; assay: Cytotoxicity against human MT4 cells assessed as reduction in cell viability at 100 uM incubated for 3 to 5 days by colorimetric analysis; type: cell-based; settings: mt4, 100 µM
[8] = Displacement of [3H]2-BFI from I2IR in Swiss mouse brain cortex incubated for 45 mins by liquid scintillation spectrometry
[9] = system: Mus musculus; assay: Antineuroinflammatory activity in mouse model of 5xFAD assessed as reduction in TNFalpha expression at 5 mg/kg, po administered for 4 weeks by qRT-PCR analysis; type: functional, organism-based
[10] = target: T2, Cytochrome P450 1A2 (Homo sapiens, UniProt P05177); assay: Inhibition of recombinant human CYP1A2 at 10 uM using 3-cyano-7-ethoxycoumarin as substrate incubated for 5 mins followed by substrate addition by fluorescence based assay; type: ADME; settings: recombinant enzyme
T2 sequence (P05177 whole entry): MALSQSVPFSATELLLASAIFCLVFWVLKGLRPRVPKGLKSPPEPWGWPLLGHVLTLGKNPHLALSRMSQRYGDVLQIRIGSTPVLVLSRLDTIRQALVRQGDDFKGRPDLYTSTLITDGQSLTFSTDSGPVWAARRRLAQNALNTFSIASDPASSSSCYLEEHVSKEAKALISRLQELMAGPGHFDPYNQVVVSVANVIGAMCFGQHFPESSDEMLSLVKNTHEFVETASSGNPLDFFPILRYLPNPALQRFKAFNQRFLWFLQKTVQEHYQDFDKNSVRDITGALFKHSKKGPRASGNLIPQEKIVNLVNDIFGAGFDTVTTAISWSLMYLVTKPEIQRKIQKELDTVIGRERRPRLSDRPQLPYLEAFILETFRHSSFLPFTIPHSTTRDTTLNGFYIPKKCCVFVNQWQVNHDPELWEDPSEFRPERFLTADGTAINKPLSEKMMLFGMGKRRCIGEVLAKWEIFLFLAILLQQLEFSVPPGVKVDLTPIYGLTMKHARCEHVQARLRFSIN

[11] = Solubility of compound in 1% DMSO incubated for 2 hrs by nephelometry; type: physicochemical
[12] = system: MT4; assay: Cytotoxicity against human MT4 cells assessed as effect on cell morphology at 100 uM incubated for 3 to 5 days by microscopic analysis; type: cell-based; settings: mt4, 100 µM
[13] = Solubility of compound in water incubated for 2 hrs by nephelometry; type: physicochemical; settings: buffer
[14] = system: Mus musculus; assay: Antineuroinflammatory activity in mouse model of 5xFAD assessed as reduction in sAPPbeta expression at 5 mg/kg, po administered for 4 weeks by Western blot analysis; type: functional, organism-based
[15] = target: Cytochrome P450 3A4 (Homo sapiens, UniProt P08684); assay: Inhibition of recombinant human CYP3A4 at 10 uM using 7-benzyloxytrifluoromethyl coumarin (7-BFC) and Dibenzylfluorescein as substrate incubated for 5 mins followed by substrate addition by fluorescence based assay; type: ADME; settings: recombinant enzyme
[16] = system: Vero; assay: Cytotoxicity against monkey Vero cells assessed as reduction in cell viability at 100 uM incubated for 3 to 5 days by colorimetric analysis; type: cell-based; settings: chlorocebus sabaeus
[17] = system: Mus musculus; assay: Induction of hypothermia in CD-1 mouse assessed as reduction in body temperature at 20 mg/kg, ip administered for 5 days by thermometric method; type: functional, organism-based
[18] = Stability in human liver microsomes at 5 uM incubated for 60 mins by UPLC-MS/MS analysis; type: ADME, Microsome; settings: 1 h
[19] = system: Mus musculus; assay: Effect on FADD in CD-1 mouse at 20 mg/kg, ip administered for 5 days and measured after 1 hr of last dosage by Westernblot analysis; type: functional, organism-based
[20] = system: MDCK; assay: Cytotoxicity against dog MDCK cells assessed as effect on cell morphology at 100 uM incubated for 3 to 5 days by microscopic analysis; type: cell-based, Canis lupus familiaris
[21] = Solubility of compound in methanol incubated for 2 hrs by nephelometry; type: physicochemical
[22] = Solubility of compound in acetonitrile incubated for 2 hrs by nephelometry; type: physicochemical
[23] = target: Cytochrome P450 2C19 (Homo sapiens, UniProt P33261); assay: Inhibition of recombinant human CYP2C19 at 10 uM using 3-cyano-7-ethoxycoumarin as substrate incubated for 5 mins followed by substrate addition by fluorescence based assay; type: ADME; settings: recombinant enzyme
[24] = Chemical stability of compound by HPLC analysis; type: physicochemical
[25] = system: Mus musculus; assay: Antineuroinflammatory activity in mouse model of 5xFAD assessed as reduction in H2O2 level at 5 mg/kg, po administered for 4 weeks; type: functional, organism-based
[26] = target: Voltage-gated inwardly rectifying potassium channel KCNH2 (Homo sapiens, UniProt Q12809); assay: Inhibition of recombinant human ERG expressed in CHO cells by patch clamp assay; type: cell-based
[27] = Stability in mouse liver microsomes at 5 uM incubated for 60 mins by UPLC-MS/MS analysis; type: ADME, Microsome; settings: 1 h

Nischarin, sequence (Q9Y2I1 whole entry): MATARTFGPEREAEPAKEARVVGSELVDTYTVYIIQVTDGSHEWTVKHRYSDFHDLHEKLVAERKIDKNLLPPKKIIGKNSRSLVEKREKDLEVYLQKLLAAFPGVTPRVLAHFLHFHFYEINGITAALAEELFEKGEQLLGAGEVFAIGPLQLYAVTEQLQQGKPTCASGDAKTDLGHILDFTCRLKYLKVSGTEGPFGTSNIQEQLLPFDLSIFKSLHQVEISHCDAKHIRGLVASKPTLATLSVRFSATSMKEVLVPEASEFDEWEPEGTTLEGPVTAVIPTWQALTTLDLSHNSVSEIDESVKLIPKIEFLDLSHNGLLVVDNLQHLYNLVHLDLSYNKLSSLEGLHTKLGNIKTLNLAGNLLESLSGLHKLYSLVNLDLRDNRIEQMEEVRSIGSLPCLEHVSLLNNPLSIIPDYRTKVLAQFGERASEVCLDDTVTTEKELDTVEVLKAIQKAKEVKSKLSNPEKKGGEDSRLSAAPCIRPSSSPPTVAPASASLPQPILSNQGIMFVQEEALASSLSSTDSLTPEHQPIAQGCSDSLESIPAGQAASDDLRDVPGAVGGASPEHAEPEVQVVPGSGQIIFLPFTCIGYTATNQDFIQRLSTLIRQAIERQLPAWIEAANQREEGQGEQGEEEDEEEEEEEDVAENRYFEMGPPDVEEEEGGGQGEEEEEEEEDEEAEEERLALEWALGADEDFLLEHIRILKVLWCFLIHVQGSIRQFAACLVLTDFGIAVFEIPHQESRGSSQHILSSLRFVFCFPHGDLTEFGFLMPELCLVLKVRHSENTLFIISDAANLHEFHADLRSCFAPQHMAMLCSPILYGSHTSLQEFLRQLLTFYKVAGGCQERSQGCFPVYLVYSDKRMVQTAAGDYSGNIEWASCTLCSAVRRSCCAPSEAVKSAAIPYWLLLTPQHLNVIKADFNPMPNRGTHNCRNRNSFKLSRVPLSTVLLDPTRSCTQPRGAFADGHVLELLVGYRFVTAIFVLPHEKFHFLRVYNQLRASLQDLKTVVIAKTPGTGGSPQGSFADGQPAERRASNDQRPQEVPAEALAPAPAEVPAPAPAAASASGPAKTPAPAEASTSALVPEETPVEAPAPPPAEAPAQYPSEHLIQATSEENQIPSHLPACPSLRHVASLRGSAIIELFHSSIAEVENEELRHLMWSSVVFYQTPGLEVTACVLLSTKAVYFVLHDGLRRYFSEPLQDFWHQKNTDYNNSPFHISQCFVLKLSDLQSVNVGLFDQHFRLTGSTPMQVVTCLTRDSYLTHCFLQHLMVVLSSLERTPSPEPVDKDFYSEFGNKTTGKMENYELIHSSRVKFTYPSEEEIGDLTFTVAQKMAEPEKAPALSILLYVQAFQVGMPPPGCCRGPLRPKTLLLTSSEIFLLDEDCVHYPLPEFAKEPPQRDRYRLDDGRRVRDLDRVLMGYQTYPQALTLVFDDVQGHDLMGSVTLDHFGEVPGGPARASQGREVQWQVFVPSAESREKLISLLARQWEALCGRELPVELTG
Cytochrome P450 3A4, sequence (P08684 whole entry): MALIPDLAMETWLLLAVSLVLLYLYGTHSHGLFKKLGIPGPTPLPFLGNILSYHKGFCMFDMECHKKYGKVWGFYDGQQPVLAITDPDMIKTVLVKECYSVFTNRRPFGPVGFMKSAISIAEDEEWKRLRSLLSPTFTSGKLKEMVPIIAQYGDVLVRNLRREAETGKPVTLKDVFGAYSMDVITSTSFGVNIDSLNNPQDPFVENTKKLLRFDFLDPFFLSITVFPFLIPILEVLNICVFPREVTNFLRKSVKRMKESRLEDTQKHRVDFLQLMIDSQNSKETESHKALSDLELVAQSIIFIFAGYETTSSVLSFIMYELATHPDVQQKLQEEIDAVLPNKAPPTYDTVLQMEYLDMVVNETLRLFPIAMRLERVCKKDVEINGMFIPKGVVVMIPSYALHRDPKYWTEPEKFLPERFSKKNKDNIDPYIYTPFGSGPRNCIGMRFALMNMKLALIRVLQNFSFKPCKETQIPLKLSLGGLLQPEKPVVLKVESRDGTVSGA
Voltage-gated inwardly rectifying potassium channel KCNH2, sequence (Q12809 whole entry): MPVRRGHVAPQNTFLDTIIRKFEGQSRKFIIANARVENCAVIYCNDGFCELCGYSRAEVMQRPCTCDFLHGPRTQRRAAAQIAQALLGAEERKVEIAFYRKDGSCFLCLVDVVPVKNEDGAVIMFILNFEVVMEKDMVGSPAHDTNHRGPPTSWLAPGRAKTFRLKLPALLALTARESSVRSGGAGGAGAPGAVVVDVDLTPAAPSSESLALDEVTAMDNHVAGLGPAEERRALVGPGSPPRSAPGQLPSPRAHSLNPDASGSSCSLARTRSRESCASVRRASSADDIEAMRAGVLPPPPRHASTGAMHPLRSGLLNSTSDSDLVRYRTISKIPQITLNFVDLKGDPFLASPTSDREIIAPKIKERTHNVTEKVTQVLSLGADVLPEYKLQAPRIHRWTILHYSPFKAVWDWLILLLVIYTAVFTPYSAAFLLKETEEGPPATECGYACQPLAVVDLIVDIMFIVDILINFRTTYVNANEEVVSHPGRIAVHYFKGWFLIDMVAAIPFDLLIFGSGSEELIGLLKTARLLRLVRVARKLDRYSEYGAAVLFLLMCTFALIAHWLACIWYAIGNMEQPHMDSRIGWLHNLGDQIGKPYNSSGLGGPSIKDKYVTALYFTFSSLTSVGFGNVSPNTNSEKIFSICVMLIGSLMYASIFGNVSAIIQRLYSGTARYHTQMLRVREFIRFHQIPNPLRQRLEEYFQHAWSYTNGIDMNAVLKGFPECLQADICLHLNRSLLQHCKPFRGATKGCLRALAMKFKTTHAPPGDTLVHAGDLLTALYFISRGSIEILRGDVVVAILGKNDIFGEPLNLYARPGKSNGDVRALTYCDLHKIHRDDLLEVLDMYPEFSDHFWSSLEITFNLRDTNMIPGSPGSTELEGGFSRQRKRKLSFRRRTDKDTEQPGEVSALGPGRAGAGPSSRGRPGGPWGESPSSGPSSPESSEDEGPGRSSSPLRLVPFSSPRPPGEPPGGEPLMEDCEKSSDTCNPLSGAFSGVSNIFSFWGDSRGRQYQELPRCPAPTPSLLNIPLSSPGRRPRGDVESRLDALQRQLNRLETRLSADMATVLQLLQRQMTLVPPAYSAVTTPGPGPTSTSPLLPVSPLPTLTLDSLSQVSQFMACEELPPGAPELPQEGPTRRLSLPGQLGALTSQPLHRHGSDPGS
Cytochrome P450 2C19, sequence (P33261 whole entry): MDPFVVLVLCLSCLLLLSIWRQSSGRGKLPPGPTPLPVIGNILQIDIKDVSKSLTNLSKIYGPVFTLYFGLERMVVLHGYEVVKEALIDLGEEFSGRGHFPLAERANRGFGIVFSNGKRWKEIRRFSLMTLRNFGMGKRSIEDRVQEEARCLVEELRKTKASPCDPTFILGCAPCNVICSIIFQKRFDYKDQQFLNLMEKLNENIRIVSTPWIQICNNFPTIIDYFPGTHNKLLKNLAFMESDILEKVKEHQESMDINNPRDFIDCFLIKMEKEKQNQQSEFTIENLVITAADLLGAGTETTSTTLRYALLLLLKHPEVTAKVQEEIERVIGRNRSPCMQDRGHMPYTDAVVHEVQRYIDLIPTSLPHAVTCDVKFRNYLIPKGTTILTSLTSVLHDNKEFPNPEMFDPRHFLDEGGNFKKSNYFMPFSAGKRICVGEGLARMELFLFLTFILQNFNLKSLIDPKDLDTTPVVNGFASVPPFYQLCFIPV
Cytochrome P450 2D6, sequence (P10635 whole entry): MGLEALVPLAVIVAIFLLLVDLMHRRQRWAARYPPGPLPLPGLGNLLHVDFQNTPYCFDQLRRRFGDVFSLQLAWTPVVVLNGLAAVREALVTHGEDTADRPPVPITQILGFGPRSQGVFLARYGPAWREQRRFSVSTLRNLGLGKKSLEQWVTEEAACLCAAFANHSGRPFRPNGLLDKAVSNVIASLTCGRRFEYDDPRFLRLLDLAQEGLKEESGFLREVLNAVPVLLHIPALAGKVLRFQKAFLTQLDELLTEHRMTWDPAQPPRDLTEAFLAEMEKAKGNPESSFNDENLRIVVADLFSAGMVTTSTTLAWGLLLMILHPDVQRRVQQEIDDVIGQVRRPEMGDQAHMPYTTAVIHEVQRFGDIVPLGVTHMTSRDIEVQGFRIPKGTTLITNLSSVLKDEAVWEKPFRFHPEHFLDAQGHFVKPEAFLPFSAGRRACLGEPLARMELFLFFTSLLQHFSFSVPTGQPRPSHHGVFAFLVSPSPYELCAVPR

For `CCOP(=O)(OCC)C1(c2ccccc2)N=CC2C(=O)N(c3ccc(F)c(Cl)c3)C(=O)C21` (racemic), the CC50 [1] was over 100 µM, the Activity [2] was “Active” and the Activity [3] was “Non-Toxic”. It also gave an IC50 [4] of 5.94 µM, an IC50 [5] of 912 µM and a Ki [5] of 912 µM. The “inhibition (INH)” value [6] was “Not Active”, the Activity [7] was “Non-Toxic” and the pKi [8] was 6.41. The Activity [9] was “Active”, the “inhibition (INH)” value [10] was “Not Active” and the solubility kinetic at 2 h [11] was 92 µM (≈ 44.1 µg/mL). The Activity [12] was “Non-Toxic”, the solubility [13] was “Soluble” and the Activity [14] was “Active”. The “inhibition (INH)” value [15] was “Not Active”, the Activity [16] was “Non-Toxic” and the T [17] was “inactive”. The Stability [18] was “Stable”, the Activity [19] was “inactive” and the Activity [20] was “Non-Toxic”. For the same molecule, the solubility [21] was “Soluble”, the solubility [22] was “Soluble” and the “inhibition (INH)” value [23] was “Not Active”. The Stability [24] was 100%, the Activity [25] was “Active” and the “inhibition (INH)” value [26] was “Not Active”. The Stability [27] was “Stable”.
